Source: ChEMBL document CHEMBL1201862, “PubChem BioAssay data set” (2004)
Active and inactive are the calls of the source.

Tests used:
[1] = biological target: Small ubiquitin-related modifier 2 (Homo sapiens, UniProt P61956); test: disruption of SUMO2 interaction with SIM peptide – biochemical, fluorescence polarization, uHTS hits, selectivity assay for SUMO1 interaction inhibitor project, dose response (AID 624385); format: functional; conditions: read-out: IC50_Mean
[2] = biological target: Small ubiquitin-related modifier 1 (Homo sapiens, UniProt P63165); test: SUMO1 protein-protein binding blockers, potency – biochemical, FRET, dose response (AID 624383); format: functional; conditions: read-out: IC50_Mean
Fatty acid synthase = Fatty acid synthase (Homo sapiens, UniProt P49327); test: inhibition of human FAS-TE enzyme activity – biochemical, kinetic fluorescence intensity, dose response (AID 624326); format: functional;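 also: rate of fluorescence rise from hydrolysis of a fluorogenic O-methyl fluorescein ester substrate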
[3] = biological target: UDP-galactopyranose mutase (Mycobacterium tuberculosis, UniProt P9WIQ1); test: Inhibitors of Mycobacterium tuberculosis UDP-galactopyranose mutase (UGM) enzyme Measured in Biochemical System Using Plate Reader - 2105-02_Inhibitor_Dose_CherryPick_Activity. [Related pubchem assays (depositor defined):AID504439]
[4] = biological target: Heat shock protein HSP 90-alpha (Homo sapiens, UniProt P07900); test: Luminescence-based dose response biochemical high throughput screening assay for inhibitors of the Heat Shock Protein 90 (HSP90). [Related pubchem assays: 1831 (Summary AID.), 1846 (Confirmation screen.), 1789 (Primary screen.)]
Hexokinase HKDC1 = biological target: T1, Hexokinase HKDC1 (Homo sapiens, UniProt Q2TB90); test: inhibition of HKDC1 glucose phosphorylation – biochemical, W721R variant, dose response (AID 504729); format: functional
T1 sequence (Q2TB90 whole entry): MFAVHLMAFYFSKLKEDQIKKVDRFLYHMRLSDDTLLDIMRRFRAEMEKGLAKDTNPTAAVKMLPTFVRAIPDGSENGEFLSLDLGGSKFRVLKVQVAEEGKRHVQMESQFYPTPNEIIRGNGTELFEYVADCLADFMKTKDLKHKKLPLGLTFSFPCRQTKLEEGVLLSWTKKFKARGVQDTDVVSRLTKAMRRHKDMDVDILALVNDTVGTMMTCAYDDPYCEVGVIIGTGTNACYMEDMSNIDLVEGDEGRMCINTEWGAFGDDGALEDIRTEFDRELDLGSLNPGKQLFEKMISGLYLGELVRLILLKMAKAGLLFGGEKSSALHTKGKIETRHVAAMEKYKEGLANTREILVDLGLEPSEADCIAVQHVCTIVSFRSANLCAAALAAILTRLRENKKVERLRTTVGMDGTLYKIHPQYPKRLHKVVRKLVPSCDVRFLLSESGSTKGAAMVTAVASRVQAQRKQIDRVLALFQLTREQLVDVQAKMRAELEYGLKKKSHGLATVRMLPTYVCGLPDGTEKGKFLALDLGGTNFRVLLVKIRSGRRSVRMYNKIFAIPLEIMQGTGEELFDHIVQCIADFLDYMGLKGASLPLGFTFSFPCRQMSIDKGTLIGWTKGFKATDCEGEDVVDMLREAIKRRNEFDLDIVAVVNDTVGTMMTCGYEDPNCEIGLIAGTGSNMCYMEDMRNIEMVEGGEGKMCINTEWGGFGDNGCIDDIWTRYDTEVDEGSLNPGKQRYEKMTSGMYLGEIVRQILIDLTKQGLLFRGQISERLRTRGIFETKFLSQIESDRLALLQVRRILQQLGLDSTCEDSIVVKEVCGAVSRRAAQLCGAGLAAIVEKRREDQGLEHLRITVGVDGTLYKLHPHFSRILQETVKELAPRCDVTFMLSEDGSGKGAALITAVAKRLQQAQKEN

[5] = Fluorescence-based biochemical high throughput screening dose response assay to identify inhibitors of Crimean-Congo Hemorrhagic Fever (CCHF) viral ovarian tumor domain protease (vOTU): Pep-AMC substrate.
BJ = test: BJ-TERT fibroblast viability loss – cell-based, RAS-independent, luminescence, dose response (AID 1933); format: functional; conditions: Homo sapiens
[6] = Luminescence Cell-Based Dose Response HTS to Identify Inhibitors of 5'UTR Stem-Loop Driven Prion Protein mRNA Translation in H4 Neuroglioblastoma Cells. [Related pubchem assays: 1827 (Project Summary), 1813 (Primary HTS)]; format: functional
[7] = DRD fibroblast viability loss – cell-based, non-viral oncogenic, luminescence, dose response (AID 1934); format: functional; conditions: Homo sapiens
[8] = Vero E6 cell cytotoxicity, dose response, cytotoxicity control for non-replicating M. tuberculosis project, secondary assay (AID 492998); format: functional, VeroE6; conditions: Vero C1008
[9] = NIH-3T3 fibroblast cytotoxicity, dose response, cytotoxicity control, cell-based, fluorescence, Alamar Blue, secondary assay (AID 2327); format: functional;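 also: NIH-3T3 mouse fibroblasts cultured with fluconazole at 8 µg/mL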
[10] = decrease of insulin promoter-GFP reporter – imaging, high-content screening, mouse beta cells (AID 1628); format: functional; conditions: MIN6
cells = format: functional, cell-based
[11] = fluconazole-exposed Candida albicans growth modulators – fluorescence, retest, confirmation (AID 2467); format: functional, cell-based
[12] = biological target: T2, Serine/threonine-protein phosphatase (Candida dubliniensis (strain CD36 / CBS 7987 / NCPF 3949 / NRRLY-17841) (Yeast), UniProt B9W6M3); test: blockers of CaCl2-induced CDRE-lacZ signaling – S. cerevisiae, luminescence, secondary, dose response (AID 2388); format: functional, cell-based;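 also: yeast reporter cells carrying a calcineurin-responsive lacZ construct stimulated with calcium chloride; luminescent beta-galactosidase reporter signal in whole cells rather than isolated phosphatase activity; potency for inhibition where a drop in reporter signal means calcineurin blockade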
T2 sequence (B9W6M3 whole entry): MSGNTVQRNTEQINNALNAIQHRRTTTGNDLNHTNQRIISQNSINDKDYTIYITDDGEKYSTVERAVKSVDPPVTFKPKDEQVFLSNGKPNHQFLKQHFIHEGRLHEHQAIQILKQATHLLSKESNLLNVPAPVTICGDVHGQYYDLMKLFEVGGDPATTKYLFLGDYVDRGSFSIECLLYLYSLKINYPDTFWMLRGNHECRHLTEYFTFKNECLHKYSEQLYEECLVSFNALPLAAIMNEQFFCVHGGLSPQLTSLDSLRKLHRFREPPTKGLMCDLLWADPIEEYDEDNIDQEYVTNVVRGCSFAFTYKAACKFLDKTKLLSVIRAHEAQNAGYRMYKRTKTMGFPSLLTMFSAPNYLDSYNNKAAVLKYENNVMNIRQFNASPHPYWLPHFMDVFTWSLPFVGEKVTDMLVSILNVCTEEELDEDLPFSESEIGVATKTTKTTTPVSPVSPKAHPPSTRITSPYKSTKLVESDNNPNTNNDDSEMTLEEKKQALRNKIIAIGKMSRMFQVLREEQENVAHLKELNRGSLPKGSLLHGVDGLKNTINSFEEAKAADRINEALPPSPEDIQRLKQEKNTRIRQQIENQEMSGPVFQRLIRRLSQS

HEK293 [13] = test: SAR Analysis of small molecule inhibitors of T-cell specific antigen receptor-induced NF-kB activation in a HEK-293T cell line using a luminescence assay - Set 2. [Related pubchem assays (depositor defined):AID435003, AID435012, AID489026]; format: functional, cell-based; conditions: Homo sapiens
HEK293 [14] = test: SAR Analysis of small molecule inhibitors of T-cell specific antigen receptor-induced NF-kB activation in a HEK-293T cell line using a luminescence assay. [Related pubchem assays (depositor defined):AID435003, AID435012, AID489026]; format: functional, cell-based; conditions: Homo sapiens

Chain of Small ubiquitin-related modifier 1 (P63165 whole entry): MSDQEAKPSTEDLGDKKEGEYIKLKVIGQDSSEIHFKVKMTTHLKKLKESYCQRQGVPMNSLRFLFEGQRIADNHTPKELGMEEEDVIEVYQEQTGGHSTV
Chain of Fatty acid synthase (P49327 whole entry): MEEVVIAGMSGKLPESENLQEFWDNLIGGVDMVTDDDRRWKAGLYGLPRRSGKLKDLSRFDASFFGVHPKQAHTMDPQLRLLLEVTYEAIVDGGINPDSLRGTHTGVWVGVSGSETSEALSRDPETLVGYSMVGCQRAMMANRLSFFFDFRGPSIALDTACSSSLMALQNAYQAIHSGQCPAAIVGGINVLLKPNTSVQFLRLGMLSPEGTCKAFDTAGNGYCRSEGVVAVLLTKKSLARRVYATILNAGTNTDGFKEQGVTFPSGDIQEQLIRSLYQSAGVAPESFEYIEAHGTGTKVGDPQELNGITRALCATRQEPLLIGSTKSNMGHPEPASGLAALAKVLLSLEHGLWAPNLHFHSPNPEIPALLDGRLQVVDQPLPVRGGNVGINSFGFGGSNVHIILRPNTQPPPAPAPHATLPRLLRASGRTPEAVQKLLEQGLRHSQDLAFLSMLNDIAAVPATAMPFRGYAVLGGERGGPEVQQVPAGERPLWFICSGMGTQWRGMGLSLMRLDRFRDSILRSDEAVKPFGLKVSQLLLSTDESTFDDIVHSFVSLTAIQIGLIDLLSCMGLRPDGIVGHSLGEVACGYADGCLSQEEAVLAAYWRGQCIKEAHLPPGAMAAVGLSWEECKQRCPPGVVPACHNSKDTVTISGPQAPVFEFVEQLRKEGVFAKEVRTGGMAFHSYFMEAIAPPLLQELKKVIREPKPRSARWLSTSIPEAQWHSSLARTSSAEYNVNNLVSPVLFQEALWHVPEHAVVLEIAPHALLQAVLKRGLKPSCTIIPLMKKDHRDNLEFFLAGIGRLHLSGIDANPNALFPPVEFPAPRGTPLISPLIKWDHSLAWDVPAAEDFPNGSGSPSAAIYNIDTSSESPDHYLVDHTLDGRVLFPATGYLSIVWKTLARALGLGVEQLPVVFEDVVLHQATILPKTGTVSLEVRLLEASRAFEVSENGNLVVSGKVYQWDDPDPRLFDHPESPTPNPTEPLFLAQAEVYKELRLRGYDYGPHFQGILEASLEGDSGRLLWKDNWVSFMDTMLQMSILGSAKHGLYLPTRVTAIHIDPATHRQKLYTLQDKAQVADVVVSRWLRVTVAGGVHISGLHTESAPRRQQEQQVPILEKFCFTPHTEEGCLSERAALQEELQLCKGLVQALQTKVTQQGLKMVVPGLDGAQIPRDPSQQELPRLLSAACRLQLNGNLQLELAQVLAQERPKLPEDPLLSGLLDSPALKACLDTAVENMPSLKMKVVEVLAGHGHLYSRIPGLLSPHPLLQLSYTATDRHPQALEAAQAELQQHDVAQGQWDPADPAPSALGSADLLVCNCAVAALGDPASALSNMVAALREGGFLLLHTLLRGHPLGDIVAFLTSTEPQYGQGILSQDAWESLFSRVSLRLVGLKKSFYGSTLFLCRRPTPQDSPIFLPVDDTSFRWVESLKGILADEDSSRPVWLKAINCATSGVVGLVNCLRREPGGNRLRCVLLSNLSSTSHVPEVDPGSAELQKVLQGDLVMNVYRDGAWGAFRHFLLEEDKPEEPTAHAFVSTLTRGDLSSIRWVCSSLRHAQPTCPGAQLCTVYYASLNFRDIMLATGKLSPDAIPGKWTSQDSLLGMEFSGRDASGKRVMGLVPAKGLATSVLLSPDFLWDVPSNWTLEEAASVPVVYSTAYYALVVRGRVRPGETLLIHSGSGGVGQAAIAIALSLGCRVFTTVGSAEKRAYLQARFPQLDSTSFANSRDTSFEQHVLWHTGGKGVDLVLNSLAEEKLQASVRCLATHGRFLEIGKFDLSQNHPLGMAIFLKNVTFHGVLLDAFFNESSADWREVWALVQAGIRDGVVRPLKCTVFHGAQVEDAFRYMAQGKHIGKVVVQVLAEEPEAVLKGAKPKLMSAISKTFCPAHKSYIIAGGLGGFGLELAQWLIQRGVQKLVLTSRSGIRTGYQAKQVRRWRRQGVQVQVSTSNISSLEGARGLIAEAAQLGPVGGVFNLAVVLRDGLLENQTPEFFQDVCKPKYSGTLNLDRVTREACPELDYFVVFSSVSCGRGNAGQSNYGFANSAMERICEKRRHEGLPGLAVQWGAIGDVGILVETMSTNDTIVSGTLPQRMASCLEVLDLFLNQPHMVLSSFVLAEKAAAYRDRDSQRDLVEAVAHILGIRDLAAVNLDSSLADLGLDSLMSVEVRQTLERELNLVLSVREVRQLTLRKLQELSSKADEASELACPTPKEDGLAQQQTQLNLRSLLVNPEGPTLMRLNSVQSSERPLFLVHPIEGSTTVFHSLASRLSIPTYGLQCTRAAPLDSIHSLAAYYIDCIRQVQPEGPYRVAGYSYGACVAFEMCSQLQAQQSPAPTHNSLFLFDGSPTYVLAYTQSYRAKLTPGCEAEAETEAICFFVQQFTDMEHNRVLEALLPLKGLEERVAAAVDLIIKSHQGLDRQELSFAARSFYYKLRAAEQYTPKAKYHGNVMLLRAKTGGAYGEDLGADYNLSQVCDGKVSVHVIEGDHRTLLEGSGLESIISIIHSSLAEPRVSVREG
Chain of Small ubiquitin-related modifier 2 (P61956 whole entry): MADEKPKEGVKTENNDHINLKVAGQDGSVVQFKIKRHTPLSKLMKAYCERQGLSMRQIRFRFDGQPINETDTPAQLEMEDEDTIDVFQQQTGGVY
Chain of UDP-galactopyranose mutase (P9WIQ1 whole entry): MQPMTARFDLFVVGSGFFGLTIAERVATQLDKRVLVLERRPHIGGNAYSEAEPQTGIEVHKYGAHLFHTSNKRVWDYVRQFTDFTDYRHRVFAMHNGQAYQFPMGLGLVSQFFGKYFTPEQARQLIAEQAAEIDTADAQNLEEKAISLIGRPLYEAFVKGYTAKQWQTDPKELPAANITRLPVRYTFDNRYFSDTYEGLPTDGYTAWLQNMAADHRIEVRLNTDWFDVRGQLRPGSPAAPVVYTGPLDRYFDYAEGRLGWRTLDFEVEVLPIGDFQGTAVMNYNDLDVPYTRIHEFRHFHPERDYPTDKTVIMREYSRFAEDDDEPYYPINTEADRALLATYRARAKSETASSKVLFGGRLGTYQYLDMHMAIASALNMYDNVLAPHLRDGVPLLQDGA

Compound: COc1cc(-c2ccc(Nc3ccccc3C(=O)O)c(OC)c2)ccc1Nc1ccccc1C(=O)O
- IC50 [1]: 2.34 µM (active)
- IC50 [2]: 3.9 µM (active)
- IC50 (Fatty acid synthase): 6.68 µM (active)

Compound: COC(CNC(=O)c1ccc2c3c(onc13)-c1ccccc1C2=O)OC
- AC50 [3]: 2.79 µM (active)

Compound: O=C(O)c1ccc(NC2=C/C(=N/S(=O)(=O)c3ccccc3)c3ccccc3C2=O)cc1
- IC50 [4]: 0.967 µM (active)
- IC50 (Hexokinase HKDC1): 2.74 µM (active)
- IC50 [5]: > 0.157 µM (active)

Compound: Nc1ccc2c(c1)C(=O)C(=O)c1ccccc1-2
- EC50 (BJ): 2.58 µM (inconclusive)
- EC50 [6]: 8.68 µM (inconclusive)
- EC50 [7]: 4.42 µM (active)
- CC50 [8]: 1.81 µM (active)

Compound: CCCC(=O)NC(c1ccccc1OC)c1ccc2cccnc2c1O (stereo not drawn)
- EC50 [9]: 28.7 µM (active)
- IC50 [10]: 1.71 µM (active)
- EC50 (cells): 7.86 µM (active)
- EC50 [11]: 0.476 µM (active)
- EC50 [12]: > 180 µM (inactive)
- IC50 (HEK293 [13]): 3.97 µM (active)
- IC50 (HEK293 [14]): 12.5 µM (active)
